Results taken from US20200237759A1, “DOSAGE REGIME AND METHOD FOR TREATING PULMONARY ARTERIAL HYPERTENSION” (Altavant Sciences GmbH, priority 2019, published 2020).

Key:
[1] = Part 1 SAD plasma pharmacokinetics of KAR5585 and KAR5417 after a single oral dose of KAR5585 (fasting; fed food effect); conditions: for AUC0-inf Geometric Mean / AUC0-tau Geometric Mean / Cmax Geometric Mean: 400 mg KAR5585 single oral dose
Method: Food effect was to be evaluated in Part 1, Period 2. Part 2 was permitted to begin before Part 1 was completed and, in each part, the data from each dose Cohort were to be reviewed for safety before the next dose Cohort was enrolled.
Part 1 had 6 Cohorts of 12 subjects each (for a total of 72 subjects) and Part 2 had 4 Cohorts of 12 subjects each (for a total of 48 subjects). In Part 1, the 12 subjects in Cohort 3 (400 mg) were studied twice, once under fasting conditions (Period 1) and once under fed conditions (Period 2) for food-effect assessment.
Pharmacokinetic data were to be summarized descriptively.

urine 5-HIAA/24 hours = experiment: Part 2 MAD biomarker: urine 5-HIAA/24 hours change from Day 1; type: in vivo, human
Source text: (§1) Biomarkers were to be evaluated in Part 2 by measuring concentrations of serotonin (5-hydroxytryptamine [5-HT]) in serum and 5-hydroxyindoleacetic acid (5-HIAA) in plasma and urine. As well, the relationship of biomarkers to PK parameters was to be evaluated.
(§2) The biomarker analysis was to be based on the Biomarker Population (all subjects with evaluable biomarker measurements at baseline [Day 1 predose] and at least one after dosing [Day 7 or Day 14]).
(§3) Biomarker data were to be collected only in Part 2. The following biomarkers were to be analyzed: • Serum 5-HT • Plasma 5-HIAA • Urine 5-HIAA/24 hours (as measured, adjusted, estimated, and per gram creatinine)
Linear regression was to be performed using biomarker changes, absolute and relative (%), from Day 1, at predose on Day 7 or Day 14 versus AUC0-24, Cmax, and Cmin in corresponding study days. The slopes and corresponding 95% confidence intervals (CIs) were to be tabulated. […]
The biomarker portion of the study was conducted in Part 2 MAD using the Biomarker Population. The biomarkers evaluated were serum 5-HT and plasma 5-HIAA, as well as urine 5-HIAA/24 hours (as measured, adjusted, estimated, and per gram creatinine). Urinary 5-HIAA was determined by a validated (21 C.F.R. 58, GLP-compliant) method using liquid chromatographic separation and tandem mass spectrometry detection. […]
Biomarker data were analyzed for each KAR5585 dose separately, for all KAR5585 doses pooled, and for all placebo subjects pooled.
Urine 5 HIAA/24 hour was analyzed in 4 different manners: as measured in the 24-hour collection and (in order to correct for any collection errors) adjusted for creatinine excretion, estimated by the expected creatinine excretion for the subject (as defined in and expressed per gram creatinine. Results were similar for each of the 4 manners and are presented in this report for measured urine. Tables and figures for adjusted, estimated, and per-gram creatinine results are presented in Section 14. […]

[2] = test system: plasma 5-HIAA (a PD marker of 5-HT synthesis); experiment: Part 2 MAD biomarker: plasma 5-HIAA change from Day 1; type: in vivo, human; conditions: Day 14
Source text: as §1, §2, §3
The a priori primary biomarker endpoint was to be the change in plasma 5-HIAA concentration on Day 14 from Day 1.
(§4) Linear regression was to be performed using biomarker changes, absolute and relative (%), from Day 1, at predose on Day 7 or Day 14 versus AUC0-24, Cmax, and Cmin in corresponding study days. The slopes and corresponding 95% confidence intervals (CIs) were to be tabulated.
(§5) Summary statistics (mean, standard deviation [SD], median, minimum [Min], and maximum [Max]) were to be tabulated for each biomarker, by Cohort, with absolute and relative (%) changes from Day 1 predose.
(§6) The values were to be tabulated with P values testing whether the difference of changes was equal to 0.
(§7) The biomarker portion of the study was conducted in Part 2 MAD using the Biomarker Population. The biomarkers evaluated were serum 5-HT and plasma 5-HIAA, as well as urine 5-HIAA/24 hours (as measured, adjusted, estimated, and per gram creatinine). Urinary 5-HIAA was determined by a validated (21 C.F.R. 58, GLP-compliant) method using liquid chromatographic separation and tandem mass spectrometry detection.
(§8) The Biomarker Population consisted of all subjects with evaluable baseline (Day 1 predose) and at least one postdose (Day 7 or Day 14) biomarker measurements.
(§9) Biomarker data were analyzed for each KAR5585 dose separately, for all KAR5585 doses pooled, and for all placebo subjects pooled. […]

serum 5-HT = experiment: Part 2 MAD biomarker: serum 5-HT change from Day 1; type: in vivo, human
Source text: as §1, §2, §3, §4, §5, §6, §7, §8, §9

[3] = Part 1 SAD urine pharmacokinetics (urinary excretion, renal clearance); type: in vivo, human
Method: Renal clearance of KAR5417 was calculated from the area under the plasma time concentration curve (AUC0-96) for KAR5417 and the amount of KAR5417 recovered in urine (Table 21).

[4] = 100 mg to 700 mg single dose, 7-fold increase in dose
[5] = 700 mg to 2000 mg single dose, 2.86-fold increase in dose
[6] = arithmetic mean, plasma KAR5417 after single oral 100 mg KAR5585, fasted, Cohort 1
[7] = arithmetic mean, plasma KAR5417 after single oral 700 mg KAR5585, fasted, Cohort 4
[8] = arithmetic mean, plasma KAR5417 after single oral 1200 mg KAR5585, fasted, Cohort 5
[9] = geometric mean, plasma KAR5417 after single oral 200 mg KAR5585, fasted, Cohort 2
[10] = geometric mean, plasma KAR5417 after single oral 400 mg KAR5585, fed, Cohort 3B
[11] = geometric mean, plasma KAR5417 after single oral 1200 mg KAR5585, fasted, Cohort 5
[12] = geometric mean, plasma KAR5417 after single oral 2000 mg KAR5585, fasted, Cohort 6
[13] = KAR5585 700 mg single oral dose

- increase in mean Cmax ([1]; 100 mg (Cohort 1) to 700 mg (Cohort 4), 7-fold increase in dose): 7.27 fold
- increase in mean AUC0-24 [1, 4]: 6.3 fold
- increase in mean AUC0-inf [1, 4]: 6.8 fold
- exposure (AUC0-tau and AUC0-inf) under fed relative to fasting conditions ([1]; 400 mg KAR5585 single dose): approximately 2 fold
- increase in Cmax, fed relative to fasting ([1]; 400 mg KAR5585 single dose): 1.8 fold
- increase in mean AUC0-inf, fed relative to fasting ([1]; 400 mg KAR5585 single dose): 1.8 fold
- peak exposure (Cmax) higher under fed relative to fasting conditions ([1]; 400 mg KAR5585 single dose): approximately 1.87 fold
- peak mean concentrations higher under fed relative to fasting conditions ([1]; 400 mg KAR5585 single dose): approximately 177%
- tmax ([1]; 400 mg KAR5585 single dose, fasted): 4 hour postdose
- increase in mean Cmax ([1]; 700 mg (Cohort 4) to 2000 mg (Cohort 6), 2.86-fold increase in dose): 1.38 fold
- increase in AUC0-24 [1, 5]: 1.7 fold
- increase in AUC0-inf [1, 5]: 1.81 fold
- AUC0-inf Geometric Mean ([1]; Cohort 3A (Fasting)): 3280 ng·h/mL
- AUC0-tau Geometric Mean ([1]; Cohort 3A (Fasting)): 3120 ng·h/mL
- Cmax Geometric Mean ([1]; Cohort 3A (Fasting)): 444 ng/mL
- Cmax Geometric LS Mean Ratio ([1]; Cohort 3B (Fed) versus Cohort 3A (Fasting), 400 mg KAR5585): 1.87
- AUC0-inf Geometric Mean ([1]; Cohort 3B (Fed)): 6630 ng·h/mL
- AUC0-tau Geometric Mean ([1]; Cohort 3B (Fed)): 6360 ng·h/mL
- Cmax Geometric Mean ([1]; Cohort 3B (Fed)): 831 ng/mL
- time by which all subjects had measurable concentrations ([1]; Part 1 SAD): ≤ 0.25 hours postdose
- plasma concentrations relative to plasma concentrations of KAR5585 ([1]; Part 1 SAD, fasting): approximately 10 fold
- AUC0-12 [1, 6]: 704 ng·h/mL
- AUC0-∞ [1, 6]: 886 ng·h/mL
- t1/2 [1, 6]: 4.67 h
- AUC0-12 [1, 7]: 4350 ng·h/mL
- AUC0-24 [1, 7]: 5310 ng·h/mL
- AUC0-12 [1, 8]: 5350 ng·h/mL
- Cmax [1, 8]: 896 ng/mL
- AUC0-12 ([1]; arithmetic mean, plasma KAR5417 after single oral 2000 mg KAR5585, fasted, Cohort 6): 6910 ng·h/mL
- AUC0-24 [1, 9]: 940 ng·h/mL
- t1/2 [1, 9]: 5.29 h
- AUC0-12 [1, 10]: 4170 ng·h/mL
- AUC0-24 [1, 10]: 5370 ng·h/mL
- AUC0-tau [1, 10]: 6360 ng·h/mL
- AUC0-∞ [1, 10]: 6630 ng·h/mL
- Cmax [1, 10]: 831 ng/mL
- t1/2 [1, 10]: 19.8 h
- AUC0-12 ([1]; geometric mean, plasma KAR5417 after single oral 700 mg KAR5585, fasted, Cohort 4): 3050 ng·h/mL
- AUC0-tau [1, 11]: 6580 ng·h/mL
- AUC0-∞ [1, 11]: 6880 ng·h/mL
- Cmax [1, 11]: 764 ng/mL
- t1/2 [1, 11]: 14.0 h
- AUC0-12 [1, 12]: 6550 ng·h/mL
- Cmax [1, 12]: 1030 ng/mL
- t1/2 [1, 12]: 22.1 h
- tmax ([1]; median, plasma KAR5417 after single oral 100 mg KAR5585, fasted, Cohort 1): 4.00 h
- tmax ([1]; median, plasma KAR5417 after single oral 400 mg KAR5585, fed, Cohort 3B): 4.00 h
- tmax ([1]; median, plasma KAR5417 after single oral 700 mg KAR5585, fasted, Cohort 4): 4.00 h
- time up to which concentrations remained above the LLOQ ([1]; single 100 mg KAR5585, fasting): up to 12 hours
- mean apparent terminal (elimination) half-life ([1]; single 100 mg dose of KAR5585): 4.67 h
- time up to which concentrations remained above the LLOQ ([1]; single 200 mg KAR5585, fasting): ≤ 24 h
- time up to which concentrations remained above the LLOQ ([1]; single 400 mg KAR5585, fasting): ≤ 36 h
- time up to which concentrations remained above the LLOQ ([1]; single 700 mg KAR5585, fasting): ≤ 48 h
- time up to which concentrations remained above the LLOQ ([1]; single 1200 mg KAR5585, fasting): ≤ 48 h
- time up to which concentrations remained above the LLOQ ([1]; single 2000 mg KAR5585, fasting): ≤ 72 h
- elimination half-life ([1]; single dose 400 mg KAR5585, Part 1 Cohort 3B): 20.5 h
- correlation of change from baseline in measured urine 5-HIAA with AUC0-24, Cmax, C12 or AUC0-12 (urine 5-HIAA/24 hours; Day 7): no significant correlations
- correlation of change from baseline in measured urine 5-HIAA with AUC0-24, Cmax, C12 or AUC0-12 (urine 5-HIAA/24 hours; Day 14): significantly correlated
- correlation of absolute and relative changes from baseline in plasma 5-HIAA with AUC0-24, Cmax, C12 and AUC0-12 [2]: significantly correlated
- correlation of change from baseline in serum 5-HT with AUC0-24, Cmax, C12 or AUC0-12 (serum 5-HT; Day 7): no significant correlations
- correlation of change from baseline in serum 5-HT with AUC0-24, Cmax, C12 or AUC0-12 (serum 5-HT; Day 14): correlated
- highest amount excreted in urine, of the dose ([3]; 400 mg fed Cohort (Cohort 3B)): 0.331%
- Plasma AUC0-96 Mean ([3]; KAR5585 100 mg single oral dose): 889 ng·h/mL
- Plasma AUC0-96 Mean ([3]; KAR5585 400 mg single oral dose, fasted): 3630 ng·h/mL
- Plasma AUC0-96 Mean ([3]; KAR5585 400 mg single oral dose, fed): 6590 ng·h/mL
- CLR Mean [3, 13]: 191 mL/h
- Plasma AUC0-96 Mean [3, 13]: 5990 ng·h/mL
- CLR Mean ([3]; KAR5585 1200 mg single oral dose): 157 mL/h
SMILES: Nc1nc(O[C@H](c2ccc(Cl)cc2-c2ccccc2)C(F)(F)F)cc(N2CCC3(CC2)CN[C@H](C(=O)O)C3)n1 [KAR5417, (S)-8-(2-amino-6-((R)-1-(5-chloro-[1,1′-biphenyl]-2-yl)-2,2,2-trifluoroeth-oxy)pyrimidin-4-yl)-2,8-diazaspiro[4.5]decane-3-carboxylic acid]
